# Measurements from patent publication US20070060655A1, “Use of agomelatine in obtaining medicaments intended for the treatment of sleep disorders in the depressed patient” (LES LABORATOIRES SERVIER, priority 2005, published 2007).
# How the values were obtained:
# Type in all cases: in vivo, human
# [1] = system: patients with a characterised depressive state; assay: double-blind clinical study over 6 weeks compared with venlafaxine (Hamilton Scale of Depression, Leeds Sleep Evaluation Questionnaire)
# Procedure: Another study evaluating sleep improvement was carried out in patients with a characterised depressive state as a double blind over 6 weeks compared with venlafaxine. After one week placebo, 332 patients were randomised: 165 received 25 mg/day of agomelatine and 167 received 75 mg/day of venlafaxine for 2 weeks. After 2 weeks of treatment, if clinical improvements obtained were found insufficient, the doses for some patients were doubled to 50 mg/day of agomelatine or 150 mg/day of venlafaxine for the following weeks.
# [2] = system: sleep disorders in the depressed patient; assay: double-blind clinical study over 6 weeks in comparison with mirtazapine, polysomnographic recording of sleep; details: 6 weeks of treatment
# Source text: The action specific to agomelatine on sleep disorders in the depressed patient is established in comparison with mirtazapine. This study, carried out as a double-blind over 6 weeks of treatment, has, as its principal criterion of efficacy, the polysomnographic recording of sleep. The Hamilton Scale of Depression allows the antidepressant efficacy to be documented.
# [3] = system: patients with a characterised depressive state; assay: pilot study of sleep polysomnographic parameters in 15 patients; details: agomelatine 25 mg; polysomnography
# Procedure: Lastly, effects of agomelatine on the sleep polysomnographic parameters were evaluated in a pilot study carried out in 15 patients with a characterised depressive state. […] Furthermore, agomelatine increase the total duration of sleep, reduce the number of nocturnal wakenings, and as a consequence improve sleep efficacy.
# [4] = versus venlafaxine, p less than or equal to 0.001
smiles,measurement,setting,value
"COc1ccc2cccc(CCNC(C)=O)c2c1 [agomelatine, N-[2-(7-methoxy-1-naphthyl)ethyl]acetamide]",antidepressant efficacy (Hamilton Scale of Depression),"[1]; agomelatine 25 mg/day (up to 50 mg/day) versus venlafaxine 75 mg/day (up to 150 mg/day), 6 weeks",comparable efficacy of agomelatine versus venlafaxine
same,"""sensation of well-being""",[1]; [4],equally significant improvement
same,"""sleepiness during the day""",[1]; [4],equally significant improvement
same,"LSEQ item ""quality of sleep"" (QOS)","[1]; versus venlafaxine, p=0.015",appreciably greater efficacy
same,"LSEQ item ""ease of getting to sleep"" (GTS)","[1]; versus venlafaxine, significant difference from the first week (p=0.007), continuing during the 6 weeks",more important and faster to appear than for venlafaxine
same,efficacy in the treatment of sleep disorders in the depressed patient (polysomnographic recording of sleep),[2],especially effective
same,REM (rapid eye movements) sleep,[3],without alteration
same,absolute and relative durations of cycles 3 and 4 of the recording of the electroencephalographic activity,[3],significantly improved
same,number of nocturnal wakenings,[3],reduce
same,onset of the beneficial effects on sleep,[3],from the first week of treatment
same,sleep efficacy,[3],improve
same,sleep physiological structure,[3],Restoration of the sleep physiological structure was observed
same,total duration of sleep,[3],increase
